From patent US20130197002A1, “B[…] TREATING VISUAL DISORDERS MEDIATED BY CENTRAL VISUAL P[…] THE EYE” (ALLERGAN, INC., priority 2012, published 2013) come the findings set out here.

The subject of this assay is rat visual cortex slices. The assay is described as follows: Long-term potentiation (LTP) in visual cortex slice. The format is cell-based. As for the experimental part: Long-Term Potentiation in Visual Cortex Slice
Following decapitation of the anesthetized rat, the brain was rapidly removed and immersed in ice-cold artificial cerebrospinal fluid (ACSF) containing (in mM) NaCl 124, KCl 3, KH2PO4 1.25, CaCl2 3.4, MgSO4 2.5, NaHCO3 26, and D-glucose 10. A block of visual cortex was created by removing the frontal ⅔ portion of the brain and the cerebellum. Coronal visual cortex slices of 350 μm thick were prepared from young adult (200-300 g) male Sprague-Dawley rats using a vibratome (VT 1000 S; Leica). The slices were maintained in an interface recording chamber perfused with preheated ACSF. Slices were continuously perfused with this solution at a rate of 1.00-1.50 ml/min while the surface of the slices was exposed to warm, humidified 95% O2/5% CO2 and maintained at 31±1° C. Visual cortex slices were allowed to recover for 1 hr before recording began. A single stimulating and recording electrode was placed in layer IV and III, respectively, to generate and record field excitatory postsynaptic potentials (fEPSPs). Pulses were administered at 0.05 Hz using a current that produced a fEPSP that is 50% of the maximum spike free response. An input-output (IO) curve is done to determine the stimulation needed to achieve a stable baseline. Following a 15 min stable baseline recording period, a train of 5 theta bursts (each burst containing four pulses at 100 Hz with an inter-burst interval of 200 ms) is delivered to the slice. This is repeated 2 additional times with a 1 minute inter-train interval, and the level of LTP was recorded for at least 30 min. Changes in amplitude of the synaptic response were used to measure the extent of LTP, since the amplitude was determined to be the more consistent parameter than the slope of the response. Control LTP values were obtained from slices not treated with drug. Different slices were used to study drug effects on LTP. Brimonidine was infused after 15 min baseline recording for duration of 20 minutes followed by LTP induction. […] LTP was recorded for at least 30 min after induction.

Take `CCC1(c2cnc[nH]2)Cc2ccccc2C1` [atipamezole]: the “brimonidine-induced enhancement of LTP in presence of alpha 2 pan antagonist” value (atipamezole plus brimonidine, FIG. 1 right panel) is given as “fully suppressed”.
Take `Brc1c(N=C2NCCN2)ccc2nccnc12` [brimonidine, (5-bromo-quinoxalin-6-yl)-imidazolidin-2-ylidene-amine]: where the note is “brimonidine administered to visual cortex slices, FIG. 1 left panel”, the “effect on LTP” value is “marked and dose-dependent enhancement of LTP”. Moreover, where the note is “visual cortex slices, FIG. 1 left panel”, the “threshold dose for enhancement of LTP” value turned out to be 3 nM.
